Test results published in patent US20220362279A1, “USE OF OLIGONUCLEOTIDES FOR THE TREATMENT AND PREVENTION OF PAIN” (CONSEJO NACIONAL DE INVESTIGACIONES CIENTÍFICAS Y TÉCNICAS, priority 2018, published 2022).
Entries after “also recorded” stand apart in the source; their conditions may differ. Strand notation (5' to 3'): a small letter for the sugar, then the base; units joined by * are phosphorothioate-linked, units joined directly phosphodiester-linked; [ ] holds rarer units or linkages, { } end groups; capitals alone tell only the bases. d = 2'-deoxy (DNA)

Key:
Format in all cases: in vivo, rat
[1] = test system: rats with hind paw inflammation (CFA rats); experiment: Mechanical allodynia (von Frey, 50% withdrawal threshold) in rats with CFA-induced hind paw inflammation
Description: In fifty-two rats anesthetized with Isoflurane (5% induction, 2.5% maintenance, 0.8 L/min O2 flow rate; Piramal Healthcare, UK), the right hind paw was injected intra-dermally with 100 μl of CFA (1:1, dissolved in normal saline; Sigma-Aldrich, Mo., USA), using a 1 ml syringe with a 25G needle attached. The animals (from now on, called CFA rats) were left to recover from anesthesia in a warm and quiet environment before relocating them in their corresponding cages.
In one set of experiments, called “preventive treatment”, four rats received a daily dose of 20 mg/kg IMT504 for five consecutive days and four weeks later one dose of 6 mg/kg (group a); a second group of four rats received one dose of 6mg/kg of IMT504 (group b) (FIG. 1A). Three days after the single injection of 6 mg/kg IMT504, all eight rats received intra-plantar CFA, after which they were tested for mechanical and cold allodynia during 21 days. At day 28, group b received an additional administration of IMT504 at a dose of 3 mg/kg and was evaluated until day 35.
In a second set of experiments, groups of rats were allocated to early or late treatment protocols (ET and LT, respectively), using a daily dose of 20 mg/kg IMT504 for five consecutive days (FIG. 2A). The ET protocol (n=5) was performed immediately after the intradermal injection of CFA in the hind paw; the LT protocol (n=5) was initiated seven days after the induction of hind paw inflammation (FIG. 2A). In all cases, animals where tested for pain-like behavior during four weeks after the induction of hind paw inflammation (days 1, 3, 7; weeks 2, 3 and 4).
In a third set of experiments, different concentrations and dosages of IMT504 were administered subcutaneously using the LT protocol (FIG. 3A). Rats were separated in three groups (n=5 per group) and treated as follows: i) a daily dose of 0.2 mg/kg of IMT504 for five consecutive days, ii) a daily dose of 2 mg/kg of IMT504 for five consecutive days, and iii) a daily dose of 2 mg/kg of IMT504 for three consecutive days. All these groups were tested for pain-like behavior up to seven weeks after induction of the hind paw inflammation.
(§1) Naïve (uninjured and untreated; n=16), CFA injured untreated (n=10), and vehicle-treated CFA (n=9) or SNI rats (n=10) were used as controls. Eight naïve rats remained untreated, four were vehicle-treated, and four received a daily dose of 20 mg/kg IMT504 for five consecutive days. Untreated CFA rats received an intradermal hind paw injection of CFA and no further treatment. Vehicle-treated CFA rats received five daily subcutaneous injections of saline (200 μl), starting seven days after injury. Vehicle-treated SNI rats received one single dose of saline (200 ul), starting seven days after injury.
For mechanical allodynia assessment, a set of von Frey filaments (Stoelting, Ill., USA) and the modified up-down method of Dixon were used, as described by Chaplan et al. (Chaplan S R, et, al., (1994) J. Neurosci Methods 53: 55-632) to establish the 50% withdrawal threshold. A withdrawal threshold of 6 g or less was considered an allodynic response.
In seventeen rats anesthetized with Isoflurane (5% induction, 2.5% maintenance, 0.8 L/min O2 flow rate; Scott-Cassara, Argentina), the right hind paw was injected intra-dermally with 100 μl of CFA (1:1, dissolved in normal saline; Sigma-Aldrich, MO, USA), using a 1 ml syringe with a 25G needle. The animals (called CFA rats) were left to recover from anesthesia in a warm and quiet environment before relocating in their corresponding cages.
Eight rats received a dose of 6 mg/kg IMT504 (FIGS. 2 and 3). Three days after the single injection of 6 mg/kg IMT504, all rats received intra-plantar complete Freund's Adjuvant (CFA), after which they were tested for mechanical and cold allodynia during 21-35 days. On day 28 (FIG. 1) or 28 (FIG. 2), rats receiving preventive IMT504 were administered additional IMT504 at a dose of 3 mg/kg (FIG. 1) or 2 mg/kg (FIG. 2), and assessed until days 21-35. […]

naïve rats = experiment: Tail immersion test (tail heat nociception) in naïve rats; details: 20 mg/kg daily x5; observed up to 22 days; 52° C. bath
Description: as §1
For acute thermal nociception assessment, the tail immersion test was used. The latency of tail-flick reflex to swift immersion of the last 3 cm of the tip of the tail of each rat on a hot bath (52° C.) was measured using a stopwatch (resolution of 0.01 s). This was repeated three times, with 10 s intervals, and an average response was obtained.

[2] = test system: rats with post-incisional pain; experiment: Cold allodynia in rats with post-incisional pain (plantar incision); details: 6 mg/kg s.c. 48 h and 24 h before incision; particularly apparent 3 days after injury
Source text: In twenty-four rats anesthetized with Isoflurane (5% induction, 2.5% maintenance, 0.8 L/min O2 flow rate; Scott-Cassara, Argentina), the right hind paw plantar skin was cleaned and disinfected. This was followed by a 1-cm longitudinal incision distal to heel and extending towards the toes, as previously described (Xu J, et al., 2011, 24(5): 508-514). The incision involved both plantar skin and fascia. This was followed by identification and longitudinal incision of plantar […] muscle, leaving its insertions intact. After achieving homeostasica, skin was sutured using a 5-0 nylon suture, protected with an antibacterial cream and the animal was returned to its retention cage, under observation, until full recovery from anesthesia.
Rats were subcutaneously administered 6 mg/kg of IMT504, 48 and 24 h before implementing the post-incisional pain model. This was followed by pain-like behavior testing for up to 21 days after injury.
For cold allodynia assessment, the reaction to the application of a drop of acetone onto the plantar surface of the hind paw was used, as previously described. Frequency of withdrawal to cold stimuli was measured.

[3] = 6 mg/kg 3 days before CFA (FIG. 6, FIG. 8)

How did the “period after induction of inflammation during which IMT504 prevents mechanical allodynia” value [1, 3] turn out when “IMT504: synthetic phosphorothioate oligodeoxynucleotide with sequence 5′-TCATCATTTTGTCATTTTGTCATT-3′ (SEQ ID No 1) (DNA dT*dC*dA*dT*dC*dA*dT*dT*dT*dT*dG*dT*dC*dA*dT*dT*dT*dT*dG*dT*dC*dA*dT*dT)” was run?
The value was 7 days.

What about the “time of reaching allodynic levels comparable to vehicle-treated rats” value [1, 3] of the same substance?
Its value is 14 days after injury.

What about the “day by which mechanical withdrawal thresholds are fully comparable to injured untreated or vehicle-treated rats” value ([1]; 6 mg/kg 3 days before CFA, both groups (FIG. 10A, 11A)) of the same substance?
Its value is 21 days.

And the “lack of mechanical allodynia until” value ([1]; 6 mg/kg 3 days before CFA, group with booster on day 21 (FIG. 11A))?
The value was 7 days after injury.

And the “lack of mechanical allodynia until” value ([1]; 6 mg/kg 3 days before CFA, group with booster on day 28 (FIG. 10A))?
The value was 3 days after injury.

And the “effect of a booster dose of 2 mg/kg IMT504 21 days after injury on mechanical allodynia” value ([1]; 6 mg/kg 3 days before CFA, booster 2 mg/kg day 21 (FIG. 11A))?
Its value is “completely restored the anti-allodynic effect”.

And the “effect of an additional dose of 3 mg/kg IMT504 28 days after injury on mechanical allodynia” value ([1]; 6 mg/kg 3 days before CFA, booster 3 mg/kg day 28, observed one day after re-administration)?
The value was “quickly reverted; also recorded: complete reduction in mechanical and cold allodynia; also recorded: full recovery of basal withdrawal thresholds; also recorded: completely restored the anti-allodynic effect”.

And the “recovery of basal mechanical withdrawal thresholds, ET protocol” value ([1]; 20 mg/kg daily x5, started immediately after CFA)?
Its value is “reaching basal levels seven days after treatment initiation; also recorded: reaching basal thresholds seven days after injury and onwards”.

And the “recovery of basal mechanical withdrawal thresholds, LT protocol” value ([1]; 20 mg/kg daily x5, started seven days after CFA)?
Its value is “fully achieved seven days after initiation of the treatment; also recorded: recovery of basal mechanical withdrawal thresholds starting one week after treatment (two weeks after injury)”.

What about the “withdrawal thresholds of contralateral hind paws” value ([1]; IMT504-treated CFA rats, data not shown) of the same substance?
The value was “remained normal; also recorded: normal basal values”.

And the “start of progressive recovery towards basal mechanical withdrawal thresholds” value ([1]; LT protocols (0.2 or 2 mg/kg, three or five daily doses from day 7 after CFA), s.c.)?
The value was 10 day after injury.

And the “recovery of mechanical withdrawal threshold” value ([1]; LT, 0.2 mg/kg daily x5, s.c., 0.2 mg/kg)?
The value was “slower, incomplete recovery, never reaching basal withdrawal thresholds; also recorded: not reaching the basal level”.

And the “difference to vehicle-treated CFA rats towards the end of the assay” value ([1]; LT, 0.2 mg/kg daily x5, p>0.05)?
The value was “no significant differences with the vehicle-treated CFA rats”.

What about the “reaching basal ipsilateral withdrawal thresholds, counted from initiation of treatment” value ([1]; LT, three or five daily doses of 2 mg/kg, s.c.) of the same substance?
The value was “reaching basal ipsilateral withdrawal thresholds at day five after initiation of the treatment and onwards”.

And the “persistence of basal withdrawal thresholds” value ([1]; LT, three or five daily doses of 2 mg/kg, s.c., 2 mg/kg)?
The value was “maintained basal withdrawal thresholds throughout the whole assay period; also recorded: maintaining such a condition throughout the entire assay (seven weeks)”.

What about the “time at which mechanical withdrawal thresholds reach allodynic levels” value ([1]; preventive IMT504 (20 mg/kg x5 + 6 mg/kg, or 6 mg/kg only) three days before CFA, both groups) of the same substance?
Its value is 14 days after injury.

And the “mechanical allodynia twenty-one days after injury” value ([1]; preventive IMT504, both groups, comparable to untreated CFA-rats)?
Its value is “all animals reached basal allodynic levels”.

And the “lack / prevention of mechanical allodynia after CFA-induced inflammation” value ([1]; preventive IMT504: 20 mg/kg daily x5 plus 6 mg/kg four weeks later, or 6 mg/kg only, CFA three days after the 6 mg/kg dose, both groups)?
Its value is “prevention of mechanical allodynia; also recorded: lack of mechanical allodynia during the first three days”.

And the “time from which basal withdrawal thresholds are recovered” value ([1]; single dose of 2 mg/kg, one week after CFA)?
Its value is 21 days after injury.

And the “recovery of basal withdrawal thresholds” value ([1]; single dose of 2 mg/kg, one week after CFA, 2 mg/kg)?
The value was “slower, but finally complete, recovery of basal withdrawal thresholds; also recorded: slower, incomplete recovery, never reaching basal withdrawal thresholds”.

What about the “tail thermal withdrawal latency in naïve rats” value (naïve rats) of the same substance?
Its value is “did not shown changes; also recorded: did not show any evident changes”.

And the “cold allodynia after plantar incision” value [2]?
Its value is “significant reduction in cold allodynia”.
